Results from CN110179802A (priority 2019, dated 2019).

Key:
α-hemolysin (α-溶血素) = format: cell-based, Staphylococcus aureus (MRSA43300)
[1] = in vivo; cited from earlier work
[2] = test system: Streptococcus pyogenes (酿脓链球菌); conditions: cited from earlier work
MRSA43300 = assay: Antibacterial activity against MRSA43300; format: cell-based, Staphylococcus aureus (MRSA43300)
MRSA = conditions: cited from earlier work
[3] = test system: Staphylococcus aureus (金黄色葡萄球菌); conditions: cited from earlier work
Pyogeniccoccus (化脓链球菌) = conditions: cited from earlier work
agrA gene (agrA基因) = assay: Real-time PCR of agrA gene transcription in MRSA43300
[4] = test system: haemolytic activity of MRSA43300 culture supernatant on rabbit erythrocytes (MRSA43300培养物上清对兔红细胞的溶血活性); assay: Haemolytic activity of MRSA43300 culture supernatant on rabbit erythrocytes after co-culture at sub-inhibitory concentrations; format: cell-based, MRSA 43300 (Staphylococcus aureus); rabbit erythrocytes; conditions: for inhibition rate of haemolysis: 16 h at 37℃ with MRSA43300, 543 nm
HIa gene (HIa基因) = assay: Real-time PCR of HIa gene transcription in MRSA43300
[5] = test system: Mycoplasma pneumonia (肺炎支原体); conditions: cited from earlier work
[6] = 1/2MIC, 1/4MIC, 1/8MIC, compared with control group

C=C[C@]1(C)C[C@@H](OC(=O)CSc2nc(N)cc(N)n2)[C@]2(C)[C@H](C)CC[C@]3(CCC(=O)[C@H]32)[C@@H](C)[C@@H]1O [14-O-[(4,6-二氨基嘧啶-2-基)巯乙酰基]姆体林]
content of α-hemolysin in culture supernatant (α-hemolysin (α-溶血素)): 能减少培养物上清中的α-溶血素的含量,且呈明显的浓度依赖性
toxicity [1]: 毒性低
antibacterial activity [2]: 良好的抑菌活性
antibacterial activity (MRSA43300): 较好抑菌活性
antibacterial activity (MRSA): 良好的抑菌活性
antibacterial activity [3]: 良好的抑菌活性
antibacterial activity (Pyogeniccoccus (化脓链球菌)): 良好的抑菌活性
agrA gene transcription level (agrA gene (agrA基因); [6]): 与对照组相比差异显著
agrA gene transcription level (agrA gene (agrA基因); 1/16MIC): 没有明显的影响
agrA gene transcription level (agrA gene (agrA基因); 1/32MIC): 不影响agrA的基因转录水平
inhibition rate of haemolysis ([4]; 1/2MIC): 97.24±1.15%
inhibition rate of haemolysis ([4]; 1/4MIC): 96.4±2.1%
inhibition rate of haemolysis ([4]; 1/16MIC): 31.5±7.86%
inhibition of haemolytic activity, concentration dependence ([4]; sub-inhibitory concentrations, 1/2MIC to 1/32MIC): 抑制能力随药物浓度的升高而增强
HIa gene transcription level (HIa gene (HIa基因); [6]): 与对照组相比差异极显著
HIa gene transcription level (HIa gene (HIa基因); 1/16MIC, compared with control group): 与对照组相比差异显著
HIa gene transcription level (HIa gene (HIa基因); 1/32MIC): 不影响HIa基因转录水平
antibacterial activity [5]: 良好的抑菌活性
